# Results as given in patent publication US20060189539A1, “Novel GnRH analogues with antitumour effects and pharmaceutical compositions thereof” (priority 1994, published 2006).
# Non-standard residues stand in square brackets, D forms with d. Residues, ends and D or L forms follow the SMILES beside them. Groups on a side chain read outwards from the residue. *: point of attachment. dPhe(4-Cl) = N[C@H](Cc1ccc(Cl)cc1)C(=O)O; NEt2 = CCN(CC)*
# Experiments:
# [1] = tested on: Ishikawa human endometrium carcinoma cell line; assay: Inhibition of colony formation (dose-survival), Example 18; format: cell-based; details: 50 μM
# Source text: (§1) Human cell lines used in in vitro experiments. MCF-7 human mammary tumour cell line was stabilized in 1973 by Soule et al. from the pleural fluid of mammary carcinoma patients. The cells grow in monolayer and are epithelial in their character. MDA-MB-231 human mammary carcinoma cell line was isolated and stabilized in 1974 by Cailleau et al. similarly from pleural fluid. These cells also grow in monolayer. PC3 human prostate carcinoma cell line was stabilized 20 in 1979 in cell culture by Kaighn et al.; the cells are of simple epithelium type and form compact colonies in clonogenic assays. Ishikawa cell line originated from adenocarcinoma of human endometrium [Nishida et al.: Obstet. Gynecol. Jpn, 37, 25 1103-1111 (1985)], has epithelial character and contains steroid as well as GnRH receptors. Human tumour cell lines are maintained in plastic flasks (Greiner) in Dulbecco-6modified Eagle-MEM (DMEM GIBCO) nutritive medium. The medium used herein contained 10% of fetal calf serum (FCS).
# (§2) In the case of cytostatics the cell-damaging effect is not cell-specific. […] One part of the arrested cells again go into the cycle, the other part may perish (apoptosis). […] The investigations were carried out on MCF-7 and MDA-MB-231 human mammary carcinoma cell lines, PC3 human prostate 15 carcinoma cell line and Ishikawa human endometrium carcinoma cell line. Threehundred cells were set into Petri dishes of 3.5 cm in diameter each. The treatment was carried out once, 24 hours following the explantation, then the colonies formed were counted after 9 to 12 days.
# [2] = tested on: PC3 human prostate carcinoma cell line; assay: as above; format: cell-based
# Source text: as §1, §2
# [3] = tested on: MCF-7 human mammary carcinoma cell line; assay: as above; format: cell-based; details: 50 μM
# Source text: as §1, §2
# [4] = tested on: MDA-MB-231 human mammary carcinoma cell line; assay: as above; format: cell-based; details: 50 μM
# Source text: as §1, §2
# [5] = tested on: PC3 prostate tumour cell culture; assay: Inhibition of colony formation (dose-survival), Example 48; format: cell-based, human
# Source text: (§3) MCF-7 human mammary carcinoma cell line was stabilized in 1973 by Soule et al. from the pleural fluid of a patient suffering from mammary carcinoma. MDA-MB-231 human mammary carcinoma cell line was isolated and stabilized by Cailleau et al. in 1974 similarly from pleural fluid. Both cell lines grow in monolayer. MCF-7 and MDA-MB-231 human mammary carcinoma cell lines are maintained in plastic flasks (Greiner), in Dulbecco-modified Eagle-MEM (DMEM, GIBCO) liquid nutrient medium containing 10% of fetal calf serum. MCF-7 cell line is estradiol receptor (ER)-positive containing proteins specifically binding GnRH. Thus, it represents, a useful model system for investigating the direct effect of GnRH mediated by the GnRH receptor. Being ER-negative and GnRH receptor-positive, MDA-MB-231 cell line is similarly suitable to study the direct effect of GnRH. PC3 human prostate carcinoma cell line was stabilized in cell culture by Kaighn et al. in 1979. The cells are of epithelial type and form compact colonies in clonogenic assays. The Ishikawa cell line originates from human endometrial adenocarcinoma [M. Nishida et al.: Acta Obstet. Gynecol. Jpn. 37, 1103-1111 (1985)], it is epithelial in its character and contains steroid-as well as GnRH receptors.
# (§4) The examination gives accurate information about the cell-damaging effect of the substance tested as a function of varying doses. The treatment was carried out once; the colonies formed from the surviving cells were counted after 8-12 days. […] A part of the arrested cells again entered the cycle, an other part of them might be destroyed (apoptosis). […] In the case of a dose-response investigation, colonies containing less than 15 cells were not counted. 300 cells were put into each Petri dishes of 3.5 cm in diameter. The treatment was once carried out 24 hours after setting, then the colonies formed were counted after 8-12 days. The cells were treated once after 24 hours with 1-50 μM of various GnRH analogues of Examples above or with 1-50 μM of GnRH-III, respectively. The percentages of inhibition obtained on MCF-7, MDA-MB-231, PC3 and Ishikawa cells, respectively, together with the dose of the active agent used are shown in Table VIII.
# [6] = tested on: Ishikawa endometrium tumour cell culture; assay: as above; format: cell-based, human; details: 50 μM
# Source text: as §3, §4
# human tumor cell lines = assay: Colony formation, Example 48, comparison with control D-Trp6-hGnRH; format: cell-based; details: data of Table VIII
# Procedure: as §4
# In these studies the D-Trp6-hGnRH analogue (Sigma Co.) commonly used in the tumour therapy was employed as control.
# [7] = tested on: MCF-7 human mammary carcinoma cell line; assay: Inhibition of colony formation (dose-survival), Example 48; format: cell-based; details: 50 μM
# Source text: MCF-7 human mammary carcinoma cell line was stabilized in 1973 by Soule et al. from the pleural fluid of a patient suffering from mammary carcinoma. MDA-MB-231 human mammary carcinoma cell line was isolated and stabilized by Cailleau et al. in 1974 similarly from pleural fluid. Both cell lines grow in monolayer. […] MCF-7 cell line is estradiol receptor (ER)-positive containing proteins specifically binding GnRH. Thus, it represents, a useful model system for investigating the direct effect of GnRH mediated by the GnRH receptor. Being ER-negative and GnRH receptor-positive, MDA-MB-231 cell line is similarly suitable to study the direct effect of GnRH. PC3 human prostate carcinoma cell line was stabilized in cell culture by Kaighn et al. in 1979. The cells are of epithelial type and form compact colonies in clonogenic assays. The Ishikawa cell line originates from human endometrial adenocarcinoma [M. Nishida et al.: Acta Obstet. Gynecol. Jpn. 37, 1103-1111 (1985)], it is epithelial in its character and contains steroid-as well as GnRH receptors. The examination gives accurate information about the cell-damaging effect of the substance tested as a function of varying doses. The treatment was carried out once; the colonies formed from the surviving cells were counted after 8-12 days. […] A part of the arrested cells again entered the cycle, an other part of them might be destroyed (apoptosis). […] The treatment was once carried out 24 hours after setting, then the colonies formed were counted after 8-12 days. The cells were treated once after 24 hours with 1-50 μM of various GnRH analogues of Examples above or with 1-50 μM of GnRH-III, respectively. The percentages of inhibition obtained on MCF-7, MDA-MB-231, PC3 and Ishikawa cells, respectively, together with the dose of the active agent used are shown in Table VIII.
# [8] = tested on: MDA-MB-231 human mammary carcinoma cell line; assay: as above; format: cell-based
# Source text: as §3, §4
# MXT mouse mammary tumour = assay: In vivo antitumour effect on MXT mouse mammary tumour; set-up: species or system CBA/Ca mice
# Procedure: The MXT mouse mammary carcinoma contains ER and PgR proteins; furthermore, it contains also GnRH receptors; therefore, this in vivo tumor model is suitable for studying both the direct and indirect effects. The treatment of mice bearing MXT mammary tumour was commenced on the day following transplantation. […] The animals were daily treated in s.c. route starting from the day following transplantation of MXT mouse mammary tumour. […] MI-1544: 75 μg/day/animal; MI-1892: 75 μg/day/animal.
# T-lymphocytes = assay: Cellular immune response (rosette formation against BRBC antigen); format: in vivo, mice
# Source text: The immunosuppressive side effect of cytostatics used in tumour therapy is commonly known. This effect can be compensated to a certain grade by various immunostimulants (endotoxin, levamisole). Polypeptides with much […] molecular weights (about 40,000 to 80,000) are also capable of protecting against immunosuppressive effect [Gal et al.: J. Biol. Resp. Modif. 5, 148-159 (1986)). The molecular weight of the novel polyanionic P-GFLG-OH macromolecule tested by us is about 10,000, that of MI-1892 is about 2000, i.e. relatively low; therefore, their immunostimulatory activity was unexpected.
# MCF-7 xenograft = assay: In vivo antitumour effect on MCF-7 xenograft; set-up: species or system immunosuppressed CBA/Ca mice; details: 2 × 25 μg
# Procedure: The immunosuppression of mice was carried out by using the method of Steel et al. (1978).
# CBA/Ca female mice of about 6 weeks old were thymectomized and then, after one week, they were irradiated with 60Co (whole body irradiation; the lethal dose is 9.5 Gray). Within 24 hours 3 to 5×10^5 myelocytes were injected to the animals. Beneath the skin of the immunosuppressed mice 2×10^7 tumour cells or, in the case of later passages, about 2 mm^3 of tumour cells or in the case of later, additional passages about 2 mm^3 of tumour pieces were implanted. […] The treatment with steroid hormone was stopped by at least one week before beginning the investigation.
# In the case of MCF-7 tumours (xenografts) the examinations were carried out with passages being in the phase of the 37th and 38th, respectively, transplantations.
# In the case of mice bearing MCF-7 xenograft, the treatment was begun in the 4th week following xeno-transplantation.
# Recent investigations have begun on 28 animals bearing MCF-7 xenograft .and on 28 animals bearing MDA-MB-231 xenograft. On animals bearing MCF-7 tumour the treatment was commenced in the 5th week following xeno-transplantation; the tumour volume was 205 to 225 mm^3. On animals bearing MDA-MB-231 tumour, the treatment was started in the 4th week after xeno-transplantation with a tumour volume of 140 to 150 mm^3. […] The control groups were daily treated with physiological saline s.c. (Each treated group consisted of 7 animals.)
# B-lymphocytes = assay: Humoral immune response (antibody production of B-lymphocytes); format: in vivo, mice; details: for Increase of the humoral immune response: mice
# [9] = tested on: Ishikawa human endometrium tumour cells; details: 30 μM of active substance, conjugate, treated once
# Source text: (§5) The procedure of treatment was as follows. After trypsinization the cells, 400,000 cells of MCF-7, MDA-MB-231 human mammary carcinoma, PC3 human prostate carcinoma or Ishikawa human endometrium tumour each were passed into Petri dishes of 10 cm in diameter. […]
# [10] = tested on: PC3 human prostate carcinoma cells; assay: In vitro inhibition of cell proliferation (cell count), Example 19; format: cell-based; details: 30 μM of active substance, conjugate, treated once
# Procedure: as §5, with “diameter. Starting from the day following transfer, the cells were treated with the substances to be tested in solution prepared with the nutrient medium during the exponential growth phase.” for “diameter.”
compound,measurement,setting,value
"NCCCC[C@H](NC(=O)[C@H](Cc1c[nH]c2ccccc12)NC(=O)[C@H](Cc1c[nH]cn1)NC(=O)[C@@H]1CCC(=O)N1)C(=O)N[C@@H](Cc1c[nH]cn1)C(=O)N[C@@H](CC(=O)O)C(=O)N[C@@H](Cc1c[nH]c2ccccc12)C(=O)N[C@@H](CCCCN)C(=O)N1CCC[C@H]1C(=O)NCC(N)=O [Compound 6, Lys^4-GnRH-III]",% Inhibition of colony formation,[1],21%
same,% Inhibition of colony formation,[2]; 50 μM,did not show any inhibition
same,% Inhibition of colony formation,[3],40%
same,% Inhibition of colony formation,[4],35%
same,% Inhibition of colony formation,[5]; 50 μM,0%
same,Effect on colony-forming ability,[5]; within the dose range used (1-50 μM),did not influence
same,% Inhibition of colony formation,[6],21%
same,Inhibitory effect on colony formation compared with control D-Trp6-hGnRH,human tumor cell lines,exceeded the inhibitory effect of control
same,% Inhibition of colony formation,[7],40%
same,% Inhibition of colony formation,[8]; 10 μM,18%
same,% Inhibition of colony formation,[8]; 50 μM,35%
"CC(=O)N[C@H](Cc1c[nH]c2ccccc12)C(=O)N[C@H](Cc1ccc(Cl)cc1)C(=O)N[C@H](Cc1c[nH]c2ccccc12)C(=O)N[C@@H](CO)C(=O)N[C@@H](Cc1ccc(O)cc1)C(=O)N[C@H](CCCCN)C(=O)N[C@@H](CC(C)C)C(=O)N[C@@H](CCCNC(=N)N)C(=O)N1CCC[C@H]1C(=O)N[C@H](C)C(N)=O [MI-1544, Ac-D-Trp^1,3,D-Cpa^2,D-Lys^6, D-Ala^10-hGnRH] (Ac-[dW][dPhe(4-Cl)][dW]SY[dK]LRP[dA]-NH2)",Tumour volume as control (%),"MXT mouse mammary tumour; 75 μg/day/animal s.c., day 20",54%
same,Inhibition %,MXT mouse mammary tumour; 1 × 75 μg daily s.c.,46%
same,Tumour volume as control (%),"MXT mouse mammary tumour; 1 × 75 μg daily s.c., Treatment weeks: 20",54%
"CCN(CC)C(=O)[C@H](CC(=O)N[C@@H](CC(C)C)C(=O)N[C@@H](CCC(N)=O)C(=O)N1CCC[C@H]1C(=O)N[C@H](C)C(N)=O)NC(=O)[C@H](CCCCN)NC(=O)[C@H](CO)NC(=O)[C@@H](Cc1c[nH]c2ccccc12)NC(=O)[C@@H](Cc1ccc(Cl)cc1)NC(=O)[C@@H](Cc1c[nH]c2ccccc12)NC(C)=O [MI-1892, Ac-D-Trp^1,3,D-Cpa^2,Lys^5,[β-Asp(DEA)]^6,D-Ala^10-hGnRH, reference compound] (Ac-[dW][dPhe(4-Cl)][dW]SKD([Leu-Gln-Pro-dA-NH2])-NEt2)",Increase of the cellular immune response,T-lymphocytes; 100 μg/mouse,nearly twofold
same,Effect on the cellular immune response (activity of T-lymphocytes against BRBC antigen),T-lymphocytes; dose not stated,increased
same,Inhibition %,MCF-7 xenograft; week 4,22.5%
same,Inhibition %,MCF-7 xenograft; week 6,21%
same,Effect on the humoral immune response,B-lymphocytes; dose not stated,strengthened
same,Increase of the humoral immune response,B-lymphocytes; 50 μg/mouse,more than twofold
same,Increase of the humoral immune response,B-lymphocytes; 100 μg/mouse,threefold
"D-Phe2,D-Trp3,{D-Lys[n-poly(N-vinylpyrrolidone-co-maleic acid)-Gly-Phe-Leu-Gly-]}6.-GNRH [P-GFLG-1004]",% Inhibition of cell division,[9],20%
same,% Inhibition of colony formation,[1],46%
same,% Inhibition of colony formation,[2]; 30 μM,100%
same,% Inhibition of cell division,[10],35%
same,% Inhibition of colony formation,[7],44%
"{Lys[n-poly(N-vinylpyrrolidone-co-maleic acid)-Gly-Phe-Leu-Gly-]}4,-GnRH-III [P-GFLG-Lys4-GnRH-III]",% Inhibition of colony formation,[1],25%
same,% Inhibition of colony formation,[2]; 30 μM,94%
same,% Inhibition of colony formation,[3],68%
same,% Inhibition of colony formation,[4],75%
